The values that follow come from PMC2992454 (ACS chemical neuroscience, 2010).

The subject of one experiment is 20S proteasome. The conditions noted are these: localize inside the 20S subunit along the active proteolytic site; ref [14], [15]; cited from earlier work.
Experiment [1] deals with h20S proteasome, chymotrypsin-like activity (Homo sapiens, UniProt P28074). As to the kind of experiment: Kinetic analysis of proteasome chymotrypsin-like activity with or without Aβ. In kind it is biochemical. As to conditions: pH 7.8, 37°C; for Vmax: LLVY-AMC 0–200 µM, 40 ng h20S in 100 µL.

With Aβ(1–40): Aβ(1–40) peptides, in the experiment on 20S proteasome, the “effect on chymotrypsin-like activity of the proteasome” value is given as “inhibit the chymotrypsin-like activity of the proteasome”.
For “N-Succinyl-Leu-Leu-Val-Tyr-AMC [LLVY-AMC]”, the values for the Vmax in experiment [1] (0 µM Aβ(1–42)), in experiment [1] (1 µM oligomeric Aβ(1–42)) and in experiment [1] (5 µM oligomeric Aβ(1–42)) were 3.1 ± 0.1 x10^−2µM/min, 3.5 ± 0.2 x10^−2µM/min and 3.7 ± 0.3 x10^−2µM/min, respectively. Also, the “Vmax, lower end over all Aβ concentrations” value in experiment [1] (oligomeric Aβ(1–42) 0–5 µM, Table 1: 0 and 0.5 µM Aβ, LLVY-AMC) stood at 0.031 ± 0.001 µM/min. Further, the “Vmax, upper end over all Aβ concentrations” value in experiment [1] (oligomeric Aβ(1–42) 0–5 µM, Table 1: 5 µM Aβ, LLVY-AMC) came to 0.037 ± 0.003 µM/min.
